Measured values published in patent publication US9284283B2, “Macrocyclic compounds for modulating IL-17” (ENSEMBLE THERAPEUTICS CORPORATION, priority 2012, dated 2016).

What follows are compounds tested against T1, biotinylated human IL-17 (binding to IL17R/Fc) (Homo sapiens, UniProt Q16552) (assay: IL-17 competition ELISA II (captured IL17R/Fc, biotinylated IL-17)).
T1 construct: purchased R&D Systems 317-ILB (IL-17, biotinylated); 177-IR (IL17R/Fc)
T1 sequence (Q16552 20-155 limits assumed): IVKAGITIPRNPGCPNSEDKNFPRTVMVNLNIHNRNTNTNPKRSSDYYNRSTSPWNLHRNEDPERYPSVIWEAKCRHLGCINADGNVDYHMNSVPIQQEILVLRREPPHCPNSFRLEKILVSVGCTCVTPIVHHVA
Description: In this version, a high binding 96-well plate (Costar #9018) was coated with 20 nM of goat anti-human IgG (KPL 01-10-02) in PBS, 100 μL/well, for 30 min at 37° C. followed by 5 min at 4° C. The plate was then washed in PBST (PBS/0.05% Tween-20) on a plate washer, (BioTek ELx450) then blocked with protein-free blocking buffer (Thermo Scientific #37573) in 250 μL/well for 30 min on a shaker at room temperature, and then washed again. IL17R/Fc (R&D Systems #177-IR; 10 nM in PBST, 100 μL/well) was then added to all wells. The plate was then incubated for 30 minutes at room temperature on the shaker.
While the receptor capture step was underway, compound dilutions were prepared in PBST to a concentration of 1 μM in 1.5 mL tubes. After the receptor capture step, the plate was washed and 50 μL PBST was added to the wells in row B down to row H. Then, 62.5 μL of the 1 μM compound dilutions were added to the wells of row A. From row A, 12.5 μL of the compound solution was removed and added to row B with mixing and this process of 5-fold dilutions was continued, by row, to row G. One of the wells in row A received only PBST (62.5 μL) and this dilution series served as the no competitor control. Then, going up from row G to row A, 50 μL of b-IL-17 (biotinylated human IL-17, R&D Systems #317-ILB; 20 nM) was added to all wells. Row H received 50 μL of PBST and served as the blank row, i.e., no compound and no b-IL-17. The plate was then incubated for 30 minutes at room temperature on the shaker.
After the wash, 100 μL Streptavidin-Horseradish Peroxidase (SA-HRP) (KPL #14-30-00) at 25 ng/mL in PBST was added to each well in the plate and the plate incubated for 30 minutes at room temperature followed by wash and 100 μL SureBlue™ TMB (KPL #52-00-03). After sufficient color development (approx 3-6 minutes), the reaction was fixed by the addition of 100 μL/well 0.5 N HCl and absorbance was measured at 450 nm on a BioTek Synergy 2 plate reader. The absorbances of ‘no competitor’ control and blank control should not exceed 1.5 A.U. and 0.06 A.U., respectively.
Data was processed using BioAssay Enterprise v10.1.4 (CambridgeSoft) software. Linear OD λ450 were plotted against log concentration (x) and fitted to a 4-parameter logistic equation. IC50 was calculated using positive ‘no competitor’ control data as an upper limit and blank control as a lower limit in each assay.

| SMILES | IC50 [nM] |
| --- | --- |
| CN1CCNCCNC(=O)CC2(CCCC2)CC(=O)N[C@H](Cc2ccc(NC(=O)[C@H](Cc3ccccc3Cl)NC(=O)Cc3ccccc3)cc2)C(=O)N[C@H](Cc2ccccc2)C1=O [Compound 433] | < 100 |
| CN1CCOCCOCCNC(=O)[C@@H](Cc2ccc(NC(=O)[C@H](Cc3ccccc3Cl)NC(=O)C(F)(F)c3ccccc3)cc2)NC(=O)CC2(CCCC2)CC1=O [Compound 565] | < 100 |
| C[C@H]1NC(=O)[C@@H](CCCNC(=O)[C@H](Cc2ccccc2Cl)NC(=O)C(F)(F)c2ccccc2)NC(=O)CC2(CCCC2)CC(=O)NCCCCCNC1=O [Compound 608] | > 10000 |
| CC(c1ccccc1)C(NC(=O)C(F)(F)c1ccccc1)C(=O)Nc1ccc(C[C@H]2NC(=O)CC3(CCCC3)CC(=O)N(C)CCOCCOCCNC2=O)cc1 (some centres unmarked) [Compound 643] | < 100 |
| O=C1CC2(CCCC2)CC(=O)N[C@H](Cc2ccc(NC(=O)[C@H](Cc3ccccc3Cl)NC(=O)[C@H](O)c3ccccc3)cc2)C(=O)NCCOCCOCCN1 [Compound 545] | < 100 |
| CN1CCCC/C=C/CNC(=O)[C@@H](Cc2ccc(NC(=O)[C@H](Cc3ccccc3Cl)NC(=O)Cc3ccc(F)cc3)cc2)NC(=O)CC2(CCCC2)CC1=O [Compound 447] | < 100 |
| C[C@H]1NC(=O)[C@@H](Cc2ccc(NC(=O)[C@H](Cc3ccccc3Cl)NC(=O)Cc3ccc(F)cc3)cc2)NC(=O)CC2(CCCC2)CC(=O)N2CCN(CCNC1=O)CC2 [Compound 541] | < 100 |
| O=C1CC2(CCCC2)CC(=O)N[C@H](Cc2ccc(NC(=O)[C@H](Cc3ccccc3Cl)NC(=O)Oc3ccc(F)cc3)cc2)C(=O)NCCOCCOCCN1 [Compound 572] | < 100 |
| CN1C(=O)CC2(CCCC2)CC(=O)NCCOCCOCCNC(=O)[C@H]1Cc1ccc(NC(=O)[C@H](Cc2ccccc2Cl)NC(=O)Cc2ccc(F)cc2)cc1 [Compound 477] | < 100 |
| CC(=O)N[C@@H](Cc1ccccc1Cl)C(=O)Nc1ccc(C[C@H]2NC(=O)CC3(CCCC3)CC(=O)NCCCCCNC(=O)[C@@H](C)NC2=O)cc1 [Compound 468] | < 100 |
| CC(=O)N[C@@H](Cc1ccccc1Cl)C(=O)Nc1ccc(C[C@H]2NC(=O)CC3(CCCC3)CC(=O)OCCCCCNC(=O)CNC2=O)cc1 [Compound 676] | < 100 |
| C[C@H]1NC(=O)[C@@H](Cc2ccc(NC(=O)[C@H](Cc3ccccc3Cl)NC(=O)Cc3ccc(F)cc3)cc2)NC(=O)CC2(CCCC2)NC(=O)CCCCCCNC1=O [Compound 618] | < 100 |
| CCC(F)(F)C(=O)NC(C(=O)Nc1ccc(CC2NC(=O)CC3(CCCC3)CC(=O)OCCCCCN(C)C(=O)CNC2=O)cc1)C1CCCCC1 (centres unmarked) [Compound 680] | 100 to 1000 |
| CN1CCCCCN(C)C(=O)[C@@H](Cc2ccccn2)NC(=O)[C@@H](Cc2ccc(NC(=O)[C@H](Cc3ccccc3Cl)NC(=O)Cc3ccc(F)cc3)cc2)NC(=O)CC2(CCCC2)CC1=O [Compound 524] | < 100 |
| COC(=O)N[C@H](C(=O)Nc1ccc(C[C@H]2NC(=O)CC3(CCCC3)CC(=O)N(C)CCOCCOCCNC2=O)cc1)C1CCCCC1 [Compound 624] | > 10000 |
| C[C@H]1NC(=O)[C@@H](Cc2ccc(NC(=O)[C@H](Cc3ccccc3Cl)NC(=O)C(F)(F)c3ccccc3)cc2)NC(=O)CC2(CCCC2)CC(=O)NCCN2CCN(CC2)C1=O [Compound 533] | 100 to 1000 |
| O=C1CC2(CCCC2)CC(=O)N[C@H](Cc2ccc(NC(=O)[C@H](Cc3ccccc3Cl)NC(=O)Cc3ccccc3)cc2)C(=O)NCCCCCN1 [Compound 392] | < 100 |
| C[C@H]1NC(=O)[C@@H](Cc2ccc(NC(=O)[C@H](Cc3ccccc3Cl)NC(=O)C(=O)c3ccccc3)cc2)NC(=O)CC2(CCCC2)CC(=O)N(C)CCN(C)CCN(C)C1=O [Compound 573] | < 100 |
| O=C1CC2(CCCC2)NC(=O)CCCCNC(=O)[C@@H](Cc2ccc(NC(=O)[C@H](Cc3ccccc3Cl)NC(=O)C(F)(F)c3ccccc3)cc2)N1 [Compound 652] | 100 to 1000 |
| C[C@H]1NC(=O)[C@@H](Cc2ccc(NC(=O)[C@H](Cc3ccccc3Cl)NC(=O)C(F)(F)c3ccccc3)cc2)NC(=O)CC2(CCCC2)NC(=O)CCNC(=O)CCNC1=O [Compound 635] | < 100 |
